We go through two compounds from PMC11396062, “The n-Butanol Extract Obtained from the Inner Bark of Tabebuia rosea (Bertol.) DC, Specioside, and Catalposide Induce Leukemia Cell Apoptosis in the Presence of Apicidin” (Molecules, 2024).

In general, IC50 refers to the concentration needed to halve the response being measured.

Values after ≈ are worked out from the molar mass of the structure shown. Read-outs that look alike come from different tables or passages of the source.

Test [1] deals with Jurkat cells. The test is described as follows: MTT cell viability assay, Jurkat cells. The class given is cell-based, human. Conditions: for IC50: Homo sapiens, Jurkat, MTT, n = 3; for SI (selectivity index): IC50 PBMC / IC50 Jurkat. The protocol: (§1) Jurkat and THP-1 cell lines were purchased from the American Type Culture Collection (ATCC, Rockville, MD, USA); Jurkat is a human lymphocytic cell line representing acute T-cell leukemia, and THP-1 is a monocytic cell line that represents acute myelogenous leukemia (AML). […] Cat Nos. […] The cells were maintained at 37 °C in a humidified atmosphere with 5% CO2. The culture medium was exchanged with fresh medium every 2-3 days. Peripheral blood mononuclear cells (PBMCs) were isolated from normal human venous blood. Further, 10 milliliters of human blood was mixed with 10 mL of RPMI-1640 containing 50 μL of heparin and gradually poured over 1 mL of HISTOPAQUE®-1119 (Sigma). The plasma was removed by centrifugation at 3000 rpm for 30 min. The peripheral blood mononuclear cell-containing layer was collected with a pipette and diluted in 4 mL of PBS. PBMCs were harvested by centrifugation at 1500 rpm for 10 min at room temperature, resuspended in RPMI-1640 with 10% FBS, and incubated at 37 °C in 5% CO2 humidified air. […] Doxorubicin was used as a reference standard drug (positive control). After treatment, the medium was discarded; 200 μL of RPMI 1640 medium without phenol red containing 0.5 mg/mL MTT (Sigma Chemical Co., Saint Louis, MO, USA; Cat. No. […] The plates were incubated for four hours at 37 °C with 5% CO2 in a humidified atmosphere. The medium was discarded, and 100 μL of DMSO was added to solubilize the formazan crystals. The absorbance was measured with an ELISA microplate reader at 492 nm (ELx800; BioTek Instruments Inc., Winooski, VT, USA). The percentage of viable cells was calculated on the basis of the nontreated control (taken as 100%). […] Three independent assays were performed, each in triplicate. The selectivity index corresponds to the ratio of the IC50 value calculated for the activity of synthesized compounds on a regular cell line (PBMCs) to that of the IC50 calculated for cancer cell lines (Jurkat and THP-1). Values greater than two were optimal for an efficient selectivity index.
(In general: Tetrazolium dyes change colour on reduction, which living cells bring about.)

Test [2] deals with THP-1 cells. The test is described as follows: MTT cell viability assay, THP-1 cells. The class given is cell-based, human. Conditions: for IC50: MTT, n = 3. As to the method:
as §1

In test [3] the test system is BAX. The test is described as follows: Western blot Bax protein. Type of test: cell-based, human. Conditions: THP-1, catalposide 44 and 66 μg/mL, specioside 20, 40 and 60 μg/mL. The protocol: (§2) THP-1 cells were seeded in 24-well plates (5 × 10^5 cells/well), and after 24 h of incubation, they were pretreated with 1 µM apicidin for 24 h and then treated with different concentrations of the n-butanol extract, catalposide, and specioside for 24 h. After treatment, the cells were lysed with an Abcam protein extraction kit (ab270054), and a phosphatase inhibitor cocktail (ab201115) was added. The supernatants of the cell extracts were quantified with a BCA protein assay (Thermo Scientific Pierce #23227, Waltham, MA, USA). Equivalent amounts of protein were electrophoresed on 10% SDS polyacrylamide gels and then electroblotted onto 0.45 μm polyvinylidene difluoride (PVDF) membranes (GE Healthcare, Chicago, IL, USA). […] The signals were detected using SuperSignal™ West Pico PLUS Chemiluminescent Substrate (Thermo Scientific Pierce cat 34577) and analyzed with a ChemiDoc XRS+ system (Bio-Rad, Hercules, CA, USA). The density of each band was measured using ImageJ software V. 1.53n, 7 November 2021 (NIH, Bethesda, MD, USA), and the protein levels were normalized to the GAPDH levels. The data are expressed as the means of three independent experiments. […]

Test [4] has as its system Bcl-2. The test is described as follows: Western blot Bcl-2 protein. The class given is cell-based, human. To be noted: THP-1, catalposide 44 μg/mL, specioside 40 μg/mL, APC pretreatment (Figure 9). As to the method:
as §2
For orientation: A western blot detects proteins with antibodies after separation by electrophoresis.

Test [5] concerns p38 MAPK. The test is described as follows: Western blot p38 phosphorylation. The class given is cell-based, human. Conditions: THP-1, APC pretreatment, p < 0.001. As to the method: as §2
Test [6] has as its system JNK. The test is described as follows: Western blot JNK phosphorylation. The class given is cell-based, human. To be noted: THP-1, 24 h; specioside all concentrations except 60 μg/mL in presence of APC. The protocol: as §2
Test [7] deals with ERK. The test is described as follows: Western blot ERK phosphorylation. Type of test: cell-based, human. To be noted: THP-1, 24 h. As to the method:
as §2

Test [8] relates to Hep-G2 cells. Also noted: method as in PMID 21678519. Conditions: cited from earlier work.
[9] abbreviates: Homo sapiens, THP-1, 12 h, read-out: IC50.
The mark [10] stands for this setting: Homo sapiens, THP-1, 24 h, read-out: IC50.
[11] abbreviates: Homo sapiens, THP-1, 48 h, read-out: IC50.

Regarding `O=C(O[C@H]1[C@@H]2C=CO[C@@H](O[C@@H]3O[C@H](CO)[C@@H](O)[C@H](O)[C@H]3O)[C@@H]2[C@@]2(CO)O[C@@H]12)c1ccc(O)cc1` [Catalposide, catalposide], the IC50 in test [1] (12 h) amounted to 107 ± 5.3 µg/mL (≈ 221 µM); in test [1] (24 h) it was 92.8 ± 1.5 µg/mL (≈ 192 µM); in test [1] (48 h), 71.2 ± 2.8 µg/mL (≈ 148 µM); in test [2] (setting [9]) it was 122 ± 3.3 µg/mL (≈ 252 µM); in test [2] (setting [10]), 43.9 µg/mL (≈ 91 µM); in test [2] (setting [11]) it was 30.2 ± 1.67 µg/mL (≈ 62.5 µM). For the same compound, the half-inhibitory concentration (IC50) in test [2] (THP-1, 24 h) is reported as 43.86 ± 2.2 µg/mL (≈ 90.9 µM). For the same compound, the “SI (selectivity index)” value in test [1] (12 h) stood at 1.18; in test [1] (24 h), 0.94; in test [1] (48 h), 0.61; in test [2] (IC50 PBMC / IC50 THP-1, 12 h), 1.03; in test [2] (IC50 PBMC / IC50 THP-1, 24 h) it was 1.99; in test [2] (IC50 PBMC / IC50 THP-1, 48 h), 1.44. Also, in test [3], the “expression of Bax protein with APC pretreatment” value is on record as “increased”. Besides, the “antiapoptotic protein Bcl-2 (Western blot)” value in test [4] was “decrease”. In test [5], the “phosphorylation of p38 in cells pretreated with APC compared with control” value is recorded as “significantly increased”. Also, in test [6], the “phosphorylation of the JNK protein compared with control” value is recorded as “did not significantly change”. Also, in test [7], the “phosphorylation of the ERK protein compared with control” value was “decreased protein phosphorylation but not significantly”. For the same compound, the “effect in Hep-G2 cells” value in test [8] is “only had cytotoxic and cytostatic effects”.

On to `O=C(/C=C/c1ccc(O)cc1)O[C@H]1[C@@H]2C=CO[C@@H](O[C@@H]3O[C@H](CO)[C@@H](O)[C@H](O)[C@H]3O)[C@@H]2[C@@]2(CO)O[C@@H]12` [Specioside], for which the IC50 came to 137.7 ± 1.3 µg/mL (≈ 271 µM) in test [1] (12 h); 81.7 ± 3.5 µg/mL (≈ 161 µM) in test [1] (24 h); 68.9 ± 2.1 µg/mL (≈ 135 µM) in test [1] (48 h); 47.2 ± 2.3 µg/mL (≈ 92.9 µM) in test [2] (setting [9]); 40.3 µg/mL (≈ 79.3 µM) in test [2] (setting [10]); 26.3 ± 6.8 µg/mL (≈ 51.8 µM) in test [2] (setting [11]). The same compound showed an IC50 in test [2] (THP-1, 24 h) of 40.32 ± 1.3 µg/mL (≈ 79.3 µM). Moreover, the “SI (selectivity index)” value in test [1] (12 h) amounted to 1.20; in test [1] (24 h) it was 0.86; in test [1] (48 h), 0.79; in test [2] (IC50 PBMC / IC50 THP-1, 12 h), 3.49; in test [2] (IC50 PBMC / IC50 THP-1, 24 h), 1.75; in test [2] (IC50 PBMC / IC50 THP-1, 48 h) it was 2.06. In addition, the “expression of Bax protein with APC pretreatment” value in test [3] is listed as “increased”. For the same compound, in test [4], the “antiapoptotic protein Bcl-2 (Western blot)” value is given as “decrease”. Moreover, the “phosphorylation of p38 in cells pretreated with APC compared with control” value in test [5] is reported as “significantly increased”. Moreover, in test [6], the “phosphorylation of the JNK protein compared with control” value is recorded as “significantly phosphorylated”. In test [7], the “phosphorylation of the ERK protein compared with control” value is “did not significantly change”.
